Test results from US10028966B2 (Avalyn Pharma Inc., priority 2014, dated 2018).
Values after ≈ are worked out from the molar mass of the structure shown.

Legend:
[1] = Stability assessment of pirfenidone formulations at 25°C/60% RH and 40°C/75% RH; type: physicochemical; details: for Measured Pirfenidone / mOsmol/kg / pH: time zero
[2] = system: inflammasome activation in 264.7 macrophages; assay: Inflammasome first signal activation (LPS, secreted IL-1β); type: cell-based; details: Macrophage; read-out: fifty-percent inhibitory concentration (IC50), first-signal inflammasome activation
[3] = in vivo; cited from earlier work
[4] = cited from earlier work
[5] = 25° C./60% RH, target 1 mg/mL, 5 mM phosphate buffer pH 6.5 plus 1% (v/v) EtOH, 2% (v/v) PG
[6] = 25° C./60% RH, target 1 mg/mL, 5 mM phosphate buffer pH 6.5 plus 8% (v/v) EtOH, 16% (v/v) PG
[7] = 25° C./60% RH, target 15 mg/mL, 5 mM phosphate buffer pH 6.5 plus 1% (v/v) EtOH, 2% (v/v) PG
[8] = 25° C./60% RH, target 23 mg/mL, 5 mM phosphate buffer pH 6.5 plus 4% (v/v) EtOH, 8% (v/v) PG
[9] = 25° C./60% RH, target 30 mg/mL, 5 mM phosphate buffer pH 6.5 plus 6% (v/v) EtOH, 12% (v/v) PG
[10] = 25° C./60% RH, target 38 mg/mL, 5 mM phosphate buffer pH 6.5 plus 8% (v/v) EtOH, 16% (v/v) PG
[11] = 40° C./75% RH, target 1 mg/mL, 5 mM phosphate buffer pH 6.5 plus 1% (v/v) EtOH, 2% (v/v) PG
[12] = 40° C./75% RH, target 1 mg/mL, 5 mM phosphate buffer pH 6.5 plus 8% (v/v) EtOH, 16% (v/v) PG
[13] = 40° C./75% RH, target 15 mg/mL, 5 mM phosphate buffer pH 6.5 plus 1% (v/v) EtOH, 2% (v/v) PG
[14] = 40° C./75% RH, target 23 mg/mL, 5 mM phosphate buffer pH 6.5 plus 4% (v/v) EtOH, 8% (v/v) PG
[15] = 40° C./75% RH, target 30 mg/mL, 5 mM phosphate buffer pH 6.5 plus 6% (v/v) EtOH, 12% (v/v) PG
[16] = 40° C./75% RH, target 38 mg/mL, 5 mM phosphate buffer pH 6.5 plus 8% (v/v) EtOH, 16% (v/v) PG
[17] = target 1 mg/mL, 5 mM phosphate buffer pH 6.5 plus 1% (v/v) EtOH, 2% (v/v) PG
[18] = target 1 mg/mL, 5 mM phosphate buffer pH 6.5 plus 8% (v/v) EtOH, 16% (v/v) PG
[19] = target 15 mg/mL, 5 mM phosphate buffer pH 6.5 plus 1% (v/v) EtOH, 2% (v/v) PG
[20] = target 23 mg/mL, 5 mM phosphate buffer pH 6.5 plus 4% (v/v) EtOH, 8% (v/v) PG
[21] = target 30 mg/mL, 5 mM phosphate buffer pH 6.5 plus 6% (v/v) EtOH, 12% (v/v) PG
[22] = target 38 mg/mL, 5 mM phosphate buffer pH 6.5 plus 8% (v/v) EtOH, 16% (v/v) PG

Cc1ccc(=O)n(-c2ccccc2)c1 [pirfenidone, 5-methyl-1-phenyl-2-(1H)-pyridone]
Pirfenidone at Time = 0 [1, 5]: 1.0 mg/mL
Pirfenidone at Time = 1 month [1, 5]: 1.0 mg/mL
Pirfenidone at Time = 3 month [1, 5]: 1.0 mg/mL
Pirfenidone at Time = 6 month [1, 5]: 1.0 mg/mL
Pirfenidone at Time = 0 [1, 6]: 1.0 mg/mL
Pirfenidone at Time = 1 month [1, 6]: 1.0 mg/mL
Pirfenidone at Time = 3 month [1, 6]: 1.0 mg/mL
Pirfenidone at Time = 6 month [1, 6]: 1.0 mg/mL
Pirfenidone at Time = 0 [1, 7]: 16.1 mg/mL
Pirfenidone at Time = 1 month [1, 7]: 15.1 mg/mL
Pirfenidone at Time = 3 month [1, 7]: 14.9 mg/mL
Pirfenidone at Time = 6 month [1, 7]: 15.4 mg/mL
Pirfenidone at Time = 0 [1, 8]: 24.1 mg/mL
Pirfenidone at Time = 1 month [1, 8]: 22.1 mg/mL
Pirfenidone at Time = 3 month [1, 8]: 22.3 mg/mL
Pirfenidone at Time = 6 month [1, 8]: 23.2 mg/mL
Pirfenidone at Time = 0 [1, 9]: 30.3 mg/mL
Pirfenidone at Time = 1 month [1, 9]: 30.1 mg/mL
Pirfenidone at Time = 3 month [1, 9]: 29.6 mg/mL
Pirfenidone at Time = 6 month [1, 9]: 31.0 mg/mL
Pirfenidone at Time = 0 [1, 10]: 38.9 mg/mL
Pirfenidone at Time = 1 month [1, 10]: 38.3 mg/mL
Pirfenidone at Time = 3 month [1, 10]: 38.0 mg/mL
Pirfenidone at Time = 6 month [1, 10]: 39.2 mg/mL
Pirfenidone at Time = 0 [1, 11]: 1.0 mg/mL
Pirfenidone at Time = 1 month [1, 11]: 1.0 mg/mL
Pirfenidone at Time = 3 month [1, 11]: 1.0 mg/mL
Pirfenidone at Time = 6 month [1, 11]: 1.0 mg/mL
Pirfenidone at Time = 0 [1, 12]: 1.0 mg/mL
Pirfenidone at Time = 1 month [1, 12]: 1.0 mg/mL
Pirfenidone at Time = 3 month [1, 12]: 1.0 mg/mL
Pirfenidone at Time = 6 month [1, 12]: 1.0 mg/mL
Pirfenidone at Time = 0 [1, 13]: 16.1 mg/mL
Pirfenidone at Time = 1 month [1, 13]: 15.1 mg/mL
Pirfenidone at Time = 3 month [1, 13]: 14.8 mg/mL
Pirfenidone at Time = 6 month [1, 13]: 15.5 mg/mL
Pirfenidone at Time = 0 [1, 14]: 24.1 mg/mL
Pirfenidone at Time = 1 month [1, 14]: 22.4 mg/mL
Pirfenidone at Time = 3 month [1, 14]: 22.1 mg/mL
Pirfenidone at Time = 6 month [1, 14]: 23.3 mg/mL
Pirfenidone at Time = 0 [1, 15]: 30.3 mg/mL
Pirfenidone at Time = 1 month [1, 15]: 30.3 mg/mL
Pirfenidone at Time = 3 month [1, 15]: 30.0 mg/mL
Pirfenidone at Time = 6 month [1, 15]: 31.1 mg/mL
Pirfenidone at Time = 0 [1, 16]: 38.9 mg/mL
Pirfenidone at Time = 1 month [1, 16]: 38.4 mg/mL
Pirfenidone at Time = 3 month [1, 16]: 38.0 mg/mL
Pirfenidone at Time = 6 month [1, 16]: 37.9 mg/mL
Measured Pirfenidone [1, 17]: 1.0 mg/mL
mOsmol/kg [1, 17]: 452 mOsmol/kg
pH [1, 17]: 6.69
Measured Pirfenidone [1, 18]: 1.0 mg/mL
mOsmol/kg [1, 18]: 3590 mOsmol/kg
pH [1, 18]: 6.98
Measured Pirfenidone [1, 19]: 16.1 mg/mL
mOsmol/kg [1, 19]: 512 mOsmol/kg
pH [1, 19]: 6.65
Measured Pirfenidone [1, 20]: 24.1 mg/mL
pH [1, 20]: 6.78
Measured Pirfenidone [1, 21]: 30.3 mg/mL
mOsmol/kg [1, 21]: 2863 mOsmol/kg
pH [1, 21]: 6.90
Measured Pirfenidone [1, 22]: 38.9 mg/mL
mOsmol/kg [1, 22]: 3750 mOsmol/kg
pH [1, 22]: 7.04
IC50 [2]: ~25 µg/mL (≈ 135 µM)
administered pirfenidone excreted in the urine [3]: about 80%
time plasma level at or greater than 5 mcg/mL ([4]; 801 mg oral pirfenidone, human-measured value): 4 h
oral Cmax in IPF patients ([4]; fasting-state): about 15.7 mcg/mL
Cmax ([4]; fasting-state, read-out: oral Cmax in IPF patients): ~84 µM
increase in Tmax ([4]; oral, fed-state): seven-fold
reduction in Cmax ([4]; oral, fed-state): ~50%
